Data taken from the supplement of paper PMC11208160.

Experiment: recombinant barcode read abundance after kanamycin selection (control-corrected) (log10(CPM+1)); higher = more efficient recombination; sequences stand for … in AGTGCAGAGAAAATCGGCCAGTTTTCTCTGCCTGCAGTCCGCATGCCGT…AGATTTATGCAGCGGACTGCCTTTCTCCCAAAGTGATAAACCGGACAGTATCATGGACCGGTTTTCCCGGTAATCCGTATTTGCAAGGTTGGTTTCACT; site = the 11-nt target
How it was run: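 Pooled E. coli screen pairing targets with IS621 bridge RNA target-binding loops. Each oligo (promoter, target, barcode, J23119-driven first 104 bridge RNA bases) was Gibson-cloned into a vector with the remaining 73 bp and T7-inducible recombinase, then co-electroporated with a donor plasmid. Two replicates each were plated on chloramphenicol/ampicillin LB agar (control) or chloramphenicol/ampicillin/kanamycin with 0.1 mM IPTG. Recombination efficiency is recombinant-junction barcode counts as CPM, averaged, control-corrected, reported as log10(CPM+1).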
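Note: IS621 recombinase and bridge RNA in Escherichia coli cells.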

Row | Sequence | recombinant barcode read abundance (log10)
1 | AGGAACACTTGGGTTCTAACCTGTTGCTT (site AGGAACACTAA) | 1.56
2 | AGGAACACTTGGGTTCTAACCTGTTGCTT (site AGGAACACTCA) | 0.279
3 | AGGAACCCTTGGGTTCTAACCTGTTGCTT (site AGGAACCCTAA) | 0.911
4 | AGGAACCCTTGGGTTCTAACCTGTTGCTT (site AGGAACCCTCA) | 0.328
5 | AGGAACCCTTGGGTTCTAACCTGTTGCTT (site AGGAACCCTGA) | 0.127
6 | AGGAACCCTTGGGTTCTAACCTGTTGCTT (site AGGAACCCTTA) | 0.256
7 | AGGAAGACTTGGGTTCTAACCTGTTGCGG (site AGGAAGACTCC) | 3.01
8 | AGGAAGACTTGGGTTCTAACCTGTTGCGG (site AGGAAGACTCG) | 0.25
9 | AGGAAGGCTTGGGTTCTAACCTGTTGCCA (site AGGAAGGCTTG) | 0.693
10 | AGGAAGGCTTGGGTTCTAACCTGTTGCCA (site GACGTAACTCT) | 0.145
11 | AGGACTACTTGGGTTCTAACCTGTTGCCT (site AGAACTACTAG) | 0.217
12 | AGGACTACTTGGGTTCTAACCTGTTGCCT (site AGGACTACTAG) | 1.3
13 | AGGAGAGCTTGGGTTCTAACCTGTTGCTT (site AGGAGAGCTAA) | 1.13
14 | AGGAGAGCTTGGGTTCTAACCTGTTGCTT (site CTAGCGACTGT) | 0.0392
15 | AGGAGCCCTTGGGTTCTAACCTGTTGCCA (site AGGAGCCCTAG) | 0.408
16 | AGGAGCCCTTGGGTTCTAACCTGTTGCCA (site AGGAGCCCTTG) | 0.841

Row | Sequence | recombinant barcode read abundance (log10)
17 | AGGAGCCCTTGGGTTCTAACCTGTTGCTA (site AGGAGCCCTAA) | 0.0121
18 | AGGAGCCCTTGGGTTCTAACCTGTTGCTA (site AGGAGCCCTCA) | 0.165
19 | AGGAGCCCTTGGGTTCTAACCTGTTGCTA (site AGGAGCCCTGA) | 0.0798
20 | AGGAGCCCTTGGGTTCTAACCTGTTGCTA (site AGGAGCCCTTA) | 1.38
21 | AGGATAGCTTGGGTTCTAACCTGTTGCGG (site AGGATAGCTCC) | 2.18
22 | AGGATAGCTTGGGTTCTAACCTGTTGCGG (site AGTCTAGCTCC) | 0.102
23 | AGGATAGCTTGGGTTCTAACCTGTTGCTG (site AGAATAGCTCT) | 0.148
24 | AGGATAGCTTGGGTTCTAACCTGTTGCTG (site AGGATAGCTCA) | 1.45
25 | AGGATCCCTTGGGTTCTAACCTGTTGCAG (site AGGATCCCTAT) | 0.701
26 | AGGATCCCTTGGGTTCTAACCTGTTGCAG (site AGGATCCCTCT) | 2.31
27 | AGGCCCGCTTGGGTTCTAACCTGTTGCGG (site AGGCCCGCTCC) | 0.794
28 | AGGCCCGCTTGGGTTCTAACCTGTTGCGG (site GTAAGATCTGT) | 0.186
29 | AGGCGCCCTTGGGTTCTAACCTGTTGCAG (site AGGCGCCCTAT) | 0.185
30 | AGGCGCCCTTGGGTTCTAACCTGTTGCAG (site AGGCGCCCTCT) | 1.4
31 | AGGCGCCCTTGGGTTCTAACCTGTTGCAG (site AGGCGCCCTGT) | 0.0789
32 | AGGCGCCCTTGGGTTCTAACCTGTTGCAG (site AGGCGCCCTTT) | 0.122
